Columns and labels:
[1] = target: T1, E2F8 DNA-binding domain (Homo sapiens, UniProt A0AVK6, R156A/R314A); assay: SPR (Biacore 8K, CM5 amine coupling, steady-state […])
T1 construct: N-terminal thioredoxin-6xHis tag removed by TEV protease; E. coli Rosetta (DE3) pLysS
T1 sequence (A0AVK6 110-350 R156A/R314A): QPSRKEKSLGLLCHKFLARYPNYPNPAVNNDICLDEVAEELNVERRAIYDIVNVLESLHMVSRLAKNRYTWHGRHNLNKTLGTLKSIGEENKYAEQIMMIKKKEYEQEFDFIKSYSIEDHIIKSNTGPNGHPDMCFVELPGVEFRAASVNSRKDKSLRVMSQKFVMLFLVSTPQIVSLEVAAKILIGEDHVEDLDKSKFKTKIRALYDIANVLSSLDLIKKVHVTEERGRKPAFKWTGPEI

[2] = target: T2, E2F8 DNA-binding domain (Homo sapiens, UniProt A0AVK6); assay: as above
T2 construct: N-terminal thioredoxin-6xHis tag removed by TEV protease; E. coli Rosetta (DE3) pLysS
T2 sequence (A0AVK6 110-350): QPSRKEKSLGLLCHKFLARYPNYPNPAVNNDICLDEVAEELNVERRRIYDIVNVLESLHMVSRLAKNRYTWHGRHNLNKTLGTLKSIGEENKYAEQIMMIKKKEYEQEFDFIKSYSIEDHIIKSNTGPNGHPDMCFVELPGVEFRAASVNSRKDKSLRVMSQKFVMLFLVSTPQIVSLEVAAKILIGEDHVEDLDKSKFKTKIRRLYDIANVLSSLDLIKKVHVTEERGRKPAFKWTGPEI

Compound `O=C(Nc1ccccc1C(=O)O)c1cccc(N2C(=O)c3ccc(C(=O)Nc4ccccc4C(=O)O)cc3C2=O)c1` [HIT-4] has a Kd [1] of 7.96 µM and a Kd [2] of 0.15 µM.

Source: article PMC12822184, “Targeting E2F8 sensitizes gemcitabine-resistant gallbladder cancer to PARP inhibitors by disrupting RRM2-driven DNA repair” (Journal of Experimental & Clinical Cancer Research : CR, 2025)
